{"source": "patent US8710068B2", "about": "“Method of treating cancer using a survivin inhibitor” (The Trustees Of The University Of Pennsylvania, priority 2009, dated 2014)", "key": {"HCT116(p53−/−) cells": {"test_system": "HCT116(p53−/−) cells", "experiment": "MTT viability assay, HCT116(p53−/−)", "type": "cell-based", "conditions": "48 hours", "procedure": "FIG. 4 illustrates the effects of S12 on proliferation of p53-positive and p53-negative cancer cells. (A) HCT116(p53+/+) or HCT116(p53−/−) cells were treated with DMSO or S12 at the indicated concentrations for 48 hours. The percentage of viable cells was evaluated by MTT assay.\nThus, inhibition of cell proliferation by S12 is independent of p53 status."}, "Sur-V89Y": {"target": "T1, Sur-V89Y (Homo sapiens, UniProt O15392, V89Y)", "T1 construct": "made in house; host or cells: bacteria", "T1 sequence (O15392 whole entry V89Y)": "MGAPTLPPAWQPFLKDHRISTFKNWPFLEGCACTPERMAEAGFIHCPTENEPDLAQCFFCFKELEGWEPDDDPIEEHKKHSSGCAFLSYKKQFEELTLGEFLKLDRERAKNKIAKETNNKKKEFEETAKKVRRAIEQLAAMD", "experiment": "ITC binding to Survivin mutant V89Y", "conditions": "in words", "procedure": "FIG. 5 illustrates an analysis of S12-Survivin binding with isothermal titration calorimetry (ITC). Single-site point mutagenesis was performed to create the Survivin mutants F86A and V89Y. The native and the mutant proteins were produced and purified from bacteria.\nIn order to examine the specificity of the binding, we generated point mutations on the Survivin protein at the site presumably targeted by S12. The two mutations were substitutions of phenylalanine 86 with alanine (F86A) and valine 89 with tyrosine (V89Y). These two altered sites are also adjacent to the interface involved in dimerization of the Survivin protein. Based on structural analyses, we predict that alterations of either of these two amino acid residues may abolish the binding of S12 without affecting the overall structure of the Survivin protein."}}}
{"compound": "O=C(CC1(O)C(=O)Nc2ccc(Br)cc21)c1ccc2c(c1)OCO2", "note": "(centres unmarked) [S12]", "values": [{"measurement": "reduction of cell viability", "setting": "HCT116(p53−/−) cells", "value": "equally effective at reducing cell viability"}, {"measurement": "binding to mutant Sur-V89Y", "setting": "Sur-V89Y", "value": "did not bind"}]}
